Measured values from patent publication US8604167B2, “CD133 epitopes” (ImmunoCellular Therapeutics, Ltd., priority 2009, dated 2013).

Experiments:
CD8+ T cells [1] = assay: IFN-γ ELISPOT of CTL stimulated with peptide-pulsed DC; type: cell-based, human; parameters: key to ELISPOT IFN-γ spots vs negative control: ++: Wells that clearly had more spots than the negative control were indicated as positive
Protocol: (§1) HLA-A2 positive PBMC isolated by leukapheresis from two healthy human subjects were obtained from HemaCare Corporation (Van Nuys, Calif.). The PBMC from each subject were used to prepare CD8+ T cells and autologous dendritic cells for stimulation with immunogenic peptides. Following stimulation, the T cells were subjected to functional assays.
(§2) CD8+ T cells were prepared from each subject's PBMC by positive selection using CD8 MicroBeads (Miltenyi Biotec, Bergisch Gladbach, Germany), according to the manufacturer's instructions.
Autologous DC were prepared from adherent PBMC (2×10^6 cells/ml) cultured for 5 days in the presence of 500 IU/ml granulocyte macrophage colony-stimulating factor (Leucomax; Schering-Plough, Kenilworth, N.J.) and 500 IU/ml IL-4 (R&D Systems, Minneapolis, Minn.) in complete medium [RPMI 1640 supplemented with 10% heat-inactivated human AB serum, […] L-glutamine (Invitrogen) and antibiotics]. On day 5, DC maturation was induced by addition of 50 ng/ml TNF-α. On day 7, the mature DC were collected and pulsed with 20 μg/ml peptide for 4 hours at 20° C. Peptide-pulsed DC not used immediately were frozen for later use. […]
On days 7 and 14, cryopreserved peptide pulsed mature DC were thawed and used to restimulate the T-cells. […] Samples were washed twice by centrifugation at 400 g for 7 minutes, and representative samples were evaluated for cell concentration and viability. […]

CD8+ T cells [2] = assay: Peptide-HLA-A2 dimer staining of CTL stimulated with peptide-pulsed DC; type: cell-based, human; conditions: for peptide dimer staining relative to background, in words: summary of Table 7
Protocol: as §1, §2
Autologous DC were prepared from adherent PBMC (2×10^6 cells/ml) cultured for 5 days in the presence of 500 IU/ml granulocyte macrophage colony-stimulating factor (Leucomax; Schering-Plough, Kenilworth, N.J.) and 500 IU/ml IL-4 (R&D Systems, Minneapolis, Minn.) in complete medium [RPMI 1640 supplemented with 10% heat-inactivated human AB serum, […] L-glutamine (Invitrogen) and antibiotics]. On day 5, DC maturation was induced by addition of 50 ng/ml TNF-α. On day 7, the mature DC were collected and pulsed with 20 μg/ml peptide for 4 hours at 20° C. Peptide-pulsed DC not used immediately were frozen for later use.
The peptide pulsed matured DC were diluted to 3×10^5 cells/mL in CTL complete medium and irradiated at 2800 Rads. The initial in vitro stimulation was performed at a DC:T cell ratio of 1:5 by plating 100 μL/well of each batch of DC into a 96 well round bottom tissue culture plate (3×10^4 DC/well). One plate was prepared per peptide. To all wells, 100 μL of the CD8+ enriched T cell population was added at 1.5×10^6 cells/mL was added, resulting in a final concentration of 1.5×10^5 T-cells/well. Plates were incubated at 37° C., 5% carbon dioxide, and high humidity.
On days 7 and 14, cryopreserved peptide pulsed mature DC were thawed and used to restimulate the T-cells. Cryopreserved samples of each peptide pulsed DC batch were removed from liquid nitrogen and thawed rapidly in a 37° C. water-bath. Samples were diluted at least 1:10 with AIM V medium (Invitrogen, Carlsbard, Calif.). Samples were washed twice by centrifugation at 400 g for 7 minutes, and representative samples were evaluated for cell concentration and viability. Each DC batch was diluted to 3×10^5 cells/mL in CTL complete medium containing 20 U/mL IL-2, 10 ng/mL IL-7, and 2 μg/mL of the specific peptide, and the DC were irradiated with 2800 Rads. In vitro stimulation plates were removed carefully from the incubator and 90 μL of supernatant (no cells) were removed from each well. To each well, 100 μL of the appropriate DC batch was added. Plates were then incubated further at 37° C., 5% carbon dioxide, and high humidity.
After the second in vitro stimulation, the plates were checked daily for T-cell proliferation. When required, plates were split (one plate will become two plates) to avoid overgrowth of the CTL. […] The plates were mixed to ensure a homogenous population, then 90 μL of each CTL well was transferred into a new 96 well U bottomed plate. When splitting was performed within 3 days of the last in vitro stimulation, 100 μL of CTL complete medium containing 20 U/mL IL-2 and 10 ng/mL IL-7 was added. If splitting was performed later than 3 days from the last in vitro stimulation, 100 μL of complete CTL medium containing 40 U/mL IL-2 and 20 ng/mL IL-7 was added. Split plates were returned to the incubator at 37° C., 5% carbon dioxide, and high humidity.
On day 21, the T cells were stimulated a fourth time. The process described for in vitro stimulations 2-3 was repeated with the exception that IL-2 was replaced with 25 ng/mL IL-15.
Stimulated CTL were assayed for staining using peptide-HLA-A2 dimers. Cells were collected 19 days after the third stimulation (subject 1) or 6 days after the fourth stimulation (subjects 1 and 2).

HLA-A*0201 = HLA-A*0201 (Homo sapiens, UniProt P04439, D140Y/D185E/D98H/E176V/E277Q/G131W/G231S/I119V/I121R/I166T/I218V/L300P/L318F/N151K/N90K/P208A/P217A/Q86G/Q94H/R138H/R169H/T345S); assay: REVEAL MHC binding assay, HLA-A*0201; conditions: HLA-A*0201 binding, relative to positive control peptide
Excerpt: Fifty-five of the candidate peptides were assembled with HLA-A*0201 and analyzed for MHC binding to determine their level of incorporation into MHC molecules using the REVEAL™ MHC binding assay (ProImmune Ltd., Oxford, UK). Binding to MHC molecules was compared to that of two known T-cell epitopes: an intermediate control peptide and a positive control peptide with weak and very strong binding properties, respectively. Eleven peptides bound to HLA-A*0201 as well or better than the positive control, as indicated on Table 5.

| Substance | ELISPOT IFN-γ spots vs negative control (CD8+ T cells [1]; Subject 2, 4th stim) | ELISPOT result in words (CD8+ T cells [1]; subject 3 (so in the source)) | percentages of cells that stained positive (above background) for both dimer and CD8 (CD8+ T cells [2]; Subject 1, 3rd stim) [%] | percentages of cells that stained positive (above background) for both dimer and CD8 (CD8+ T cells [2]; Subject 1, 4th stim) [%] | percentages of cells that stained positive (above background) for both dimer and CD8 (CD8+ T cells [2]; Subject 2, 4th stim) [%] | peptide dimer staining relative to background, in words (CD8+ T cells [2]) | % Positive Control (HLA-A*0201) [%] |
| --- | --- | --- | --- | --- | --- | --- | --- |
| 11 (YLQWIEFSI; listed as Homo sapiens) [compound 11] | ++ | clearly positive | 38.64 | 20.74 | 19.39 | stained strongly above background | – |
| 19 (SQLNSNPEL; listed as Homo sapiens) [compound 19] | – | – | – | – | – | – | 163.06 |
| 20 (GLLERVTRI; listed as Homo sapiens) [compound 20] | – | – | 0.27 | −0.41 | −0.32 | indistinguishable from background | – |
| 21 (FLLPALIFA; listed as Homo sapiens) [compound 21] | – | – | 20.43 | 13.23 | 21.18 | stained strongly above background | – |
| 28 (ILSAFSVYV; listed as Homo sapiens) [compound 28] | – | – | 4.15 | 0.12 | 14.08 | stained moderately above background | – |
